The results in this text go back to ChEMBL document CHEMBL4825697, “Optimization and SAR research at the piperazine and phenyl rings of JNJ4796 as new anti-influenza A virus agents, part 1” (Eur J Med Chem, 2021).

A value given as a limit tells only on which side of the number the result lay.

One series has as its system Influenza A virus. The series is described as follows: Antiviral activity against Oseltamivir resistant Influenza A virus (A/Tianjin-Jinnan/15/2009(H1N1) infected in dog MDCK cells assessed as inhibition of surface glycoprotein hemagglutinin. It counts as functional, organism-based.
A short description of series [1]: Selectivity index, ratio of CC50 for cytotoxicity against dog MDCK cells to IC50 for antiviral activity against Oseltamivir resistant Influenza A virus (A/Tianjin-Jinnan/15/2009(H1N1)) infected in dog MDCK cells. Conditions: read-out: Selectivity Index. The format is toxicity, cell-based.

One may read the IC50 as the point on the concentration scale where inhibition reaches its midpoint. Consider `CC(=O)Nc1ccc2oc(-c3ccnc(C(=O)N4CCN([C@@H](c5ccccc5)c5nnn(C)n5)CC4)c3)nc2c1`, for which the IC50 in the series on Influenza A virus came to 8.5 µM. The selectivity ratio in series [1] was greater than 23.

For `CC(=O)Nc1ccc2oc(-c3ccnc(C(=O)N4CCN([C@H](c5ccccc5)c5nnn(C)n5)CC4)c3)nc2c1`, the IC50 in the series on Influenza A virus was 0.05 µM. Further, the selectivity ratio in series [1] stood at 2870.

Take `CC(=O)Nc1ccc2oc(-c3ccnc(C(=O)N4CCN([C@H](c5ccc(F)cc5)c5nnn(C)n5)CC4)c3)nc2c1`: the IC50 in the series on Influenza A virus was 0.06 µM. Moreover, the selectivity ratio in series [1] was greater than 3330.

Take `CC(=O)Nc1ccc2oc(-c3ccnc(C(=O)N4CCN([C@@H](c5ccc(F)cc5)c5nnn(C)n5)CC4)c3)nc2c1`: the IC50 in the series on Influenza A virus amounted to 6.65 µM. In addition, in series [1], the selectivity ratio was greater than 30.

In the case of `CCOC(=O)C1=C[C@@H](OC(CC)CC)[C@H](NC(C)=O)[C@@H](N)C1` [OSELTAMIVIR], in the series with Influenza A virus, the IC50 amounted to 180 µM. Besides, the selectivity ratio in series [1] was greater than 1.

Turning to `NC(=O)c1ncn([C@@H]2O[C@H](CO)[C@@H](O)[C@H]2O)n1` [RIBAVIRIN], the IC50 in the series with Influenza A virus amounted to 4.28 µM. The selectivity ratio in series [1] is greater than 46.
